Data taken from patent publication US10918645B2 (LIFEARC, priority 2016, dated 2021).

Experiments:
Type in all cases: biochemical
Settings in all cases: 1 μM inhibitor concentration
[1] = molecular target: IKKe (Homo sapiens (Human), UniProt Q14164); experiment: IKKe kinase selectivity assay
Method: (§1) 5-20 mU of IKKepsilon (DU14231)(diluted in 50 mM Tris (pH 7.5), 0.1 mM EGTA, 1 mg/ml BSA) is assayed against MBP in a final volume of 25.5 μl containing 50 mM Tris (pH 7.5), 0.1 mM EGTA, 0.33 mg/ml MBP, 10 mM magnesium acetate and 0.05 mM [33P-g-ATP](500-1000 cpm/pmole) and incubated for 30 mins at room temperature. Assays are stopped by addition of 5 μl of 0.5M (3%) orthophosphoric acid. Assays are harvested onto P81 Unifilter plates using a wash buffer of 50 mM orthophosphoric acid.

[2] = molecular target: SmMLCK (Homo sapiens (Human), UniProt Q15746); experiment: SmMLCK kinase selectivity assay
Method: as §1, with “smMLCK (diluted” for “IKKepsilon (DU14231)(diluted”, “Hepes” for “Tris”, “BSA, 0.1%, b-Mercaptoethanol)” for “BSA)”, “substrate peptide ([…])” for “MBP”, “5 mM CaCl2, […] Calmodulin, 300 μM substrate peptide,” for “0.33 mg/ml MBP,”

[3] = molecular target: MLK1 (Homo sapiens (Human), UniProt P80192); experiment: MLK1 kinase selectivity assay
Method: (§2) MLK1 (5-20 mU diluted in 50 mM Tris pH 7.5, 0.1 mM EGTA, 0.1% 0-mercaptoethanol, 1 mg/ml BSA) is assayed against MBP in a final volume of 25.5 μl containing 50 mM Tris pH 7.5, 0.1 mM EGTA, 0.33 mg/ml MBP, 10 mM magnesium acetate and 0.02 mM [33P-γ-ATP] (50-1000 cpm/pmole) and incubated for 30 min at room temperature. Assays are stopped by addition of 5 μl of 0.5 M (3%) orthophosphoric acid and then harvested onto P81 Unifilter plates with a wash buffer of 50 mM orthophosphoric acid.

[4] = molecular target: GCK (Homo sapiens (Human), UniProt Q12851); experiment: GCK kinase selectivity assay
Method: as §2, with “GCK” for “MLK1”, “β-mercaptoethanol,” for “0-mercaptoethanol,”

[5] = molecular target: BRSK2 (Homo sapiens (Human), UniProt Q8IWQ3); experiment: BRSK2 kinase selectivity assay
Method: as §2, with “BRSK2” for “MLK1”, “b-mercaptoethanol,” for “0-mercaptoethanol,”, “a substrate peptide ([…])” for “MBP”, “0.05% b-mercaptoethanol, 300 μM substrate peptide,” for “0.1 mM EGTA, 0.33 mg/ml MBP,”, “0.05” for “0.02”, “[33P-g-ATP]” for “[33P-γ-ATP]”

[6] = molecular target: TrkA (Homo sapiens (Human), UniProt P04629); experiment: TrkA kinase selectivity assay
Method: as §2, with “TrkA” for “MLK1”, “10 mM MnCl,” for “0.1% 0-mercaptoethanol,”, “a substrate peptide (Poly Glut Tyr)” for “MBP”, “1” for “0.33”, “substrate peptide,” for “MBP,”

[7] = molecular target: MST2 (Homo sapiens (Human), UniProt Q13188); experiment: MST2 kinase selectivity assay
Method: MST2 (5-20 mU diluted in 50 mM Tris pH 7.5, 0.1 mM EGTA, 0.1% b-mercaptoethanol, 100 µM Vanadate) is assayed against MBP in a final volume of 25.5 μl containing 50 mM Tris pH 7.5, 0.05% b-mercaptoethanol, 0.33 mg/ml MBP, 10 mM magnesium acetate and 0.02 mM [33P-g-ATP] (50-1000 cpm/pmole) and incubated for 30 min at room temperature. Assays are stopped by addition of 5 μl of 0.5 M (3%) orthophosphoric acid and then harvested onto P81 Unifilter plates with a wash buffer of 50 mM orthophosphoric acid.

[8] = molecular target: ROCK2 (Homo sapiens (Human), UniProt O75116); experiment: ROCK2 kinase selectivity assay
Method: as §2, with “ROCK-II (ROKa)” for “MLK1”, “b-mercaptoethanol,” for “0-mercaptoethanol,”, “Long S6 substrate peptide ([…])” for “MBP”, “30 μM Long S6 substrate peptide,” for “0.33 mg/ml MBP,”, “[33P-g-ATP]” for “[33P-γ-ATP]”

Chain of MLK1 (P80192 whole entry, species assumed): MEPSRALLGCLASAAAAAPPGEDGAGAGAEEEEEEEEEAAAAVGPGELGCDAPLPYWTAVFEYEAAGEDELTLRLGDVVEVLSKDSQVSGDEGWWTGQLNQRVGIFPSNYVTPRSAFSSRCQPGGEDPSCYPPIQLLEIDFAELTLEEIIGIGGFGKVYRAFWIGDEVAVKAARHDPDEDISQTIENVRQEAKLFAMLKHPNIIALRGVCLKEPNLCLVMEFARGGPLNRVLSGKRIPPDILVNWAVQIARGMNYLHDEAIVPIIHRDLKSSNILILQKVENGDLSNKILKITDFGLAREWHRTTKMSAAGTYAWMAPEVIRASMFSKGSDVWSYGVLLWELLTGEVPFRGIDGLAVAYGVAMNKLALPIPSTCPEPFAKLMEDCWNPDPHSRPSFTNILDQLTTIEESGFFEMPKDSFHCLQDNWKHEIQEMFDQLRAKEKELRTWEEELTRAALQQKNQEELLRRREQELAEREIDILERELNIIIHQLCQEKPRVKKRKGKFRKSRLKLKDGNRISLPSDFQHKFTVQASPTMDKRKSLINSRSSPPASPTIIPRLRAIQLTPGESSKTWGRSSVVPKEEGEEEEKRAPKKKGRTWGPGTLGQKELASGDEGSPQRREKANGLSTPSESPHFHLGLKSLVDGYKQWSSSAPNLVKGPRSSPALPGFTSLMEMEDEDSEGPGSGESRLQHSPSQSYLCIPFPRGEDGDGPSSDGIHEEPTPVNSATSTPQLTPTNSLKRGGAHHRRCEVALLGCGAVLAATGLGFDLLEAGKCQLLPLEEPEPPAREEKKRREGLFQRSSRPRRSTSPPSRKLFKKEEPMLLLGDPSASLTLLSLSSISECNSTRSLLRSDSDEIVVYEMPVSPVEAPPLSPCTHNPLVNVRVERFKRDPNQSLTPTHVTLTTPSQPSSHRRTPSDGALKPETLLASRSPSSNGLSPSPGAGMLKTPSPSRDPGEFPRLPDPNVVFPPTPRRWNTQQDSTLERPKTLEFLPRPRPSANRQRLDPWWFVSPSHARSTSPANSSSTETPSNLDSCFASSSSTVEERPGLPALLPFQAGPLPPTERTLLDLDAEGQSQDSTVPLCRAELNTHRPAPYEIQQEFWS
Chain of GCK (Q12851 whole entry): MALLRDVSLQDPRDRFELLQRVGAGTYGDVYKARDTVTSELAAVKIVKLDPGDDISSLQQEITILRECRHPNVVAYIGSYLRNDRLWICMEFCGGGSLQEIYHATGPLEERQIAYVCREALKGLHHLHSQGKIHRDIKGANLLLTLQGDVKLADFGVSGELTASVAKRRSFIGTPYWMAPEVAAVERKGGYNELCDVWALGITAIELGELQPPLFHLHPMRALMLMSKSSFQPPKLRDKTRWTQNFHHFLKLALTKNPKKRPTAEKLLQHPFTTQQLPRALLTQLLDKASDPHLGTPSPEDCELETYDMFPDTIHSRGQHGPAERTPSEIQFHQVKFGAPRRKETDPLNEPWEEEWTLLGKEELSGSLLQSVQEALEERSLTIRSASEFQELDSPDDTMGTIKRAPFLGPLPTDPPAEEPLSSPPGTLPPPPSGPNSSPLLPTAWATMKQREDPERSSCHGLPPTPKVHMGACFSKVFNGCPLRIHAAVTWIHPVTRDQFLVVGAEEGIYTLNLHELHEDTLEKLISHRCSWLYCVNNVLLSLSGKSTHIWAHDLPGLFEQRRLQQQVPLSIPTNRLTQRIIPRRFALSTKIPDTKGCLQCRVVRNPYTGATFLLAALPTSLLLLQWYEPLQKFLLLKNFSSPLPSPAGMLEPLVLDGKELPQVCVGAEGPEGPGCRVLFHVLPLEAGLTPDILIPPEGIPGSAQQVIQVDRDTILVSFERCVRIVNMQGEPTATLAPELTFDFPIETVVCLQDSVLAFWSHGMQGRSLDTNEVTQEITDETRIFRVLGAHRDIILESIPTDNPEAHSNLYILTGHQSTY
Chain of BRSK2 (Q8IWQ3 whole entry, species assumed): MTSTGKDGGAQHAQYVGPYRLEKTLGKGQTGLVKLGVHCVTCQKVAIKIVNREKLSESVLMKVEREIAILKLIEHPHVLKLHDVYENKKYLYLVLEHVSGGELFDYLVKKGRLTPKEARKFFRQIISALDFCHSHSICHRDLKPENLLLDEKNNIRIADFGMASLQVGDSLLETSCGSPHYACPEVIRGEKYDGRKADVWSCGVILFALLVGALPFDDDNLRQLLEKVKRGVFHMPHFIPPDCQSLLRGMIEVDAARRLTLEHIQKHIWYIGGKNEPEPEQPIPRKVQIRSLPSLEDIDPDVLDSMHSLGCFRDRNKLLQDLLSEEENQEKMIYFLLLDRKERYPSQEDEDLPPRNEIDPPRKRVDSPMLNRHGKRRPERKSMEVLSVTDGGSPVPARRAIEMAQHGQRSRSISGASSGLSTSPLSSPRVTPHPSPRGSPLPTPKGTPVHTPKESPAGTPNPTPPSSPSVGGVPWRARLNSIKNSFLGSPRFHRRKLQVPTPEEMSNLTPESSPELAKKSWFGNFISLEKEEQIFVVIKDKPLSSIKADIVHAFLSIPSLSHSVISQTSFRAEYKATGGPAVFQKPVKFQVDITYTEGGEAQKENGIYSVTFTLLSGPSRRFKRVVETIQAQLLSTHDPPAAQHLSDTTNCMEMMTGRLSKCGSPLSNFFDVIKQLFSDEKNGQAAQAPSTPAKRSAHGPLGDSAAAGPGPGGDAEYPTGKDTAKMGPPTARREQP
Chain of TrkA (P04629 33-796, species assumed): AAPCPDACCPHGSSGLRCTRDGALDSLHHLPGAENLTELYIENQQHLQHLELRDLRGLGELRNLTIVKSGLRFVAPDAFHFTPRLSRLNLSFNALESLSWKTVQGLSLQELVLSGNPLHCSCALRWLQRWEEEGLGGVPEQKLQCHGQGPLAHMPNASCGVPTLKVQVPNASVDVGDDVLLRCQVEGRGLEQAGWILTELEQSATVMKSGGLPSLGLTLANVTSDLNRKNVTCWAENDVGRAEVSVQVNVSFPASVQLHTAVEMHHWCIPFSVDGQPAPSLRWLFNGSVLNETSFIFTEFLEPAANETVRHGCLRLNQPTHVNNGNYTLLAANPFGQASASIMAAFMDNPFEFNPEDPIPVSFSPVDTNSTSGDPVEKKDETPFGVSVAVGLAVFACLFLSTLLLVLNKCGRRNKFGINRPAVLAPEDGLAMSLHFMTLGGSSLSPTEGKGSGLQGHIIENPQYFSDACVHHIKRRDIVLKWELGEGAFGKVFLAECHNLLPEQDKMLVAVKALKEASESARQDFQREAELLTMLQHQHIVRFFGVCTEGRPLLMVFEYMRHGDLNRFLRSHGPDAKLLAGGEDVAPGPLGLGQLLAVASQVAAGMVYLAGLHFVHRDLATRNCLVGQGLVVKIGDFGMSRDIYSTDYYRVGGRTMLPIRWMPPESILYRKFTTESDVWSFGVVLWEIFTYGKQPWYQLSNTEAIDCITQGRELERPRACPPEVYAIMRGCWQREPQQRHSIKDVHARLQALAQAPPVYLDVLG
Chain of ROCK2 (O75116 whole entry, species assumed): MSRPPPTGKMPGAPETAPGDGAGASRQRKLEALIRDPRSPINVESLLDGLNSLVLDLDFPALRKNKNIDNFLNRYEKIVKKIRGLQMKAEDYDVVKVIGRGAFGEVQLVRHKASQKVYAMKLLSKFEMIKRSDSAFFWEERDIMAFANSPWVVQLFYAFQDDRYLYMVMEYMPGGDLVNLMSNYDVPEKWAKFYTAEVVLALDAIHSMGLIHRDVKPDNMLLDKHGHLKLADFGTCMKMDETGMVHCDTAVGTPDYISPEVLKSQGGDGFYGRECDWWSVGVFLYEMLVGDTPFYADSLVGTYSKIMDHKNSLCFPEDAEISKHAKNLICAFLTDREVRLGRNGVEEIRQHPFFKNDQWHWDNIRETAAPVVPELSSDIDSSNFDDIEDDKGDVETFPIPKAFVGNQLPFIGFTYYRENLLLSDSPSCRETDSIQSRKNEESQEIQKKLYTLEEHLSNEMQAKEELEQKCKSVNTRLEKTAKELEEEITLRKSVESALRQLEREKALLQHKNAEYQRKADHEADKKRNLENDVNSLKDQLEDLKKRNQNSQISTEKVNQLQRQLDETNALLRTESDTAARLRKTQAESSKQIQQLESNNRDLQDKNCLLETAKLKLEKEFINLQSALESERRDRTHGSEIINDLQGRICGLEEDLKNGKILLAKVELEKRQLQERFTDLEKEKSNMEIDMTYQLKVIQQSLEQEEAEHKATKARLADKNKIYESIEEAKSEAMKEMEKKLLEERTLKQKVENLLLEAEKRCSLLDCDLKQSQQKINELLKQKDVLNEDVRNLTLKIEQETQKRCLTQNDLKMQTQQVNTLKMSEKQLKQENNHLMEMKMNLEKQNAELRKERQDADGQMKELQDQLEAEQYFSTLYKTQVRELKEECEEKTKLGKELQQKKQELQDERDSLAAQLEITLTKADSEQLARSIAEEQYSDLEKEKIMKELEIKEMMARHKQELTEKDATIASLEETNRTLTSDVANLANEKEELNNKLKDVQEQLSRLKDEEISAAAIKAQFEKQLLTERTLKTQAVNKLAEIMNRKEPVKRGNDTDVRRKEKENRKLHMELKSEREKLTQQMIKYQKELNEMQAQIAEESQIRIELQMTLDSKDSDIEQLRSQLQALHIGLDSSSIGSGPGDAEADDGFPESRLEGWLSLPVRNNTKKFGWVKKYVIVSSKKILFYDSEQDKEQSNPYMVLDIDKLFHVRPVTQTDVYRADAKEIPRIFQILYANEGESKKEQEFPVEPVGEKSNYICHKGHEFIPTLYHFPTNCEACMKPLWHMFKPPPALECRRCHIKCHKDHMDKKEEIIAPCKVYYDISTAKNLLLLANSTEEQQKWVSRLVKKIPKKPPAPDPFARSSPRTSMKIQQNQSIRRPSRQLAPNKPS

Compound	percentage inhibition of IKKe [1]	percentage inhibition of SmMLCK [2]	percentage inhibition of MLK1 [3]	percentage inhibition of GCK [4]	percentage inhibition of BRSK2 [5]	percentage inhibition of TrkA [6]	percentage inhibition of MST2 [7]	percentage inhibition of ROCK2 [8]
CC(C)n1ncc2c1CN(C1CCN(C)CC1)c1nccc3[nH]nc-2c13 [Example 68]	0 percentage	9 percentage	12 percentage	27 percentage	31 percentage	9 percentage	2 percentage	21 percentage
c1cc2[nH]nc3c2c(n1)N(C1CCC1)CCC3 [Example 22, 6-cyclobutyl-6,7,8,9-tetrahydro-2H-1,2,5,6-tetraazabenzo[cd]azulene]	0 percentage	16 percentage	0 percentage	56 percentage	0 percentage	0 percentage	20 percentage	5 percentage
c1cc2[nH]nc3c2c(n1)N(C1CCCC1)CCC3 [Example 23, 6-cyclopentyl-6,7,8,9-tetrahydro-2H-1,2,5,6-tetraazabenzo[cd]azulene]	0 percentage	15 percentage	0 percentage	41 percentage	0 percentage	0 percentage	0 percentage	0 percentage
CN1CCC(N2Cc3ccccc3-c3n[nH]c4ccnc2c34)CC1 [Example 55]	5 percentage	16 percentage	24 percentage	71 percentage	50 percentage	5 percentage	28 percentage	14 percentage
c1cc2[nH]nc3c2c(n1)N(C1CCOCC1)CCC3 [Example 29, 6-(tetrahydro-2H-pyran-4-yl)-6,7,8,9-tetrahydro-2H-1,2,5,6-tetraazabenzo[cd]azulene]	9 percentage	11 percentage	0 percentage	67 percentage	2 percentage	20 percentage	10 percentage	11 percentage
